According to publication PMC5218480 (PLoS ONE, 2017):

System: MV-4-11 cells
Test: Gene expression microarray analysis (Affymetrix PrimeView) and GSEA
Type: cell-based, human
Design: RFU PODN (11730768_x_at) / Fold change /veh PODN (11730768_x_at) / RFU LINC00158 (11744669_a_at) / Fold change /veh LINC00158 (11744669_a_at) / RFU DUSP10 (11751237_a_at) / Fold change /veh DUSP10 (11751237_a_at) / RFU ID3 (11757404_x_at) / Fold change /veh ID3 (11757404_x_at) / RFU PLEKHG5 (11737974_s_at) / Fold change /veh PLEKHG5 (11737974_s_at) / RFU LRRC4B (11730491_at) / Fold change /veh LRRC4B (11730491_at) / RFU GIMAP4 (11747438_a_at) / Fold change /veh GIMAP4 (11747438_a_at) / RFU KRT8 (11758183_x_at) / Fold change /veh KRT8 (11758183_x_at) / RFU CNN1 (11734310_a_at) / Fold change /veh CNN1 (11734310_a_at) / RFU VPS37D (11726825_at) / Fold change /veh VPS37D (11726825_at) / RFU C10orf10 (11716522_x_at) / Fold change /veh C10orf10 (11716522_x_at) / RFU KIR2DL2 /// KIR2DL4 /// KIR2DL5A /// KIR2DL5B /// KIR2DS1 /// KIR2DS2 /// KIR2DS3 /// KIR2DS4 /// KIR3DL3 /// KIR3DL3 /// KIR3DS1 (11738374_at) / Fold change /veh KIR2DL2 /// KIR2DL4 /// KIR2DL5A /// KIR2DL5B /// KIR2DS1 /// KIR2DS2 /// KIR2DS3 /// KIR2DS4 /// KIR3DL3 /// KIR3DL3 /// KIR3DS1 (11738374_at) / RFU C1QL1 (11718748_at) / Fold change /veh C1QL1 (11718748_at) / RFU TMPRSS4 (11747572_a_at) / Fold change /veh TMPRSS4 (11747572_a_at) / RFU HAMP (11756126_x_at) / Fold change /veh HAMP (11756126_x_at) / RFU RNFT2 (11725882_a_at) / Fold change /veh RNFT2 (11725882_a_at) / RFU NR4A2 (11747474_a_at) / Fold change /veh NR4A2 (11747474_a_at) / RFU ABCC12 (11746883_a_at) / Fold change /veh ABCC12 (11746883_a_at) / RFU TMEM136 (11760407_x_at) / Fold change /veh TMEM136 (11760407_x_at) / RFU CLDN22 /// WWC2 (11732394_at) / Fold change /veh CLDN22 /// WWC2 (11732394_at) / RFU HLA-DPB1 (11760878_x_at) / Fold change /veh HLA-DPB1 (11760878_x_at) / RFU SPINT1 (11716480_a_at) / Fold change /veh SPINT1 (11716480_a_at) / RFU GAP43 (11754022_s_at) / Fold change /veh GAP43 (11754022_s_at) / RFU A4GNT (11735810_at) / Fold change /veh A4GNT (11735810_at) / RFU PRB3 (11715151_x_at) / Fold change /veh PRB3 (11715151_x_at) / RFU TUBB4B (11761932_at) / Fold change /veh TUBB4B (11761932_at) / RFU CAPN14 (11732068_a_at) / Fold change /veh CAPN14 (11732068_a_at) / RFU TMCC2 (11721928_a_at) / Fold change /veh TMCC2 (11721928_a_at) / RFU IRGQ (11745062_a_at) / Fold change /veh IRGQ (11745062_a_at) / RFU FAM174B (11720279_a_at) / Fold change /veh FAM174B (11720279_a_at) / RFU TMPRSS4 (11748680_a_at) / Fold change /veh TMPRSS4 (11748680_a_at) / RFU FAM212B (11763350_a_at) / Fold change /veh FAM212B (11763350_a_at) / RFU PLEKHG5 (11743358_a_at) / Fold change /veh PLEKHG5 (11743358_a_at) / RFU ZSCAN30 (11745921_a_at) / Fold change /veh ZSCAN30 (11745921_a_at) / RFU CMKLR1 (11741424_a_at) / Fold change /veh CMKLR1 (11741424_a_at) / RFU LOC101060620 /// MAPK8IP1 (11723275_at) / Fold change /veh LOC101060620 /// MAPK8IP1 (11723275_at) / RFU SPTSSB (11747773_x_at) / Fold change /veh SPTSSB (11747773_x_at) / RFU PRSS12 (11739890_at) / Fold change /veh PRSS12 (11739890_at) / RFU BIN1 (11741810_x_at) / Fold change /veh BIN1 (11741810_x_at) / RFU WNT11 (11732464_a_at) / Fold change /veh WNT11 (11732464_a_at) / RFU C10orf10 (11716521_a_at) / Fold change /veh C10orf10 (11716521_a_at) / RFU C5orf56 (11738089_at) / Fold change /veh C5orf56 (11738089_at) / RFU CYB561 (11721691_x_at) / Fold change /veh CYB561 (11721691_x_at) / RFU ANKRD19P (11752326_a_at) / Fold change /veh ANKRD19P (11752326_a_at) / RFU OR2T12 /// OR2T33 /// OR2T8 (11738714_s_at) / Fold change /veh OR2T12 /// OR2T33 /// OR2T8 (11738714_s_at) / RFU VCAN (11748164_a_at) / Fold change /veh VCAN (11748164_a_at) / RFU JSRP1 (11732532_at) / Fold change /veh JSRP1 (11732532_at) / RFU KRTAP10-11 (11738290_x_at) / Fold change /veh KRTAP10-11 (11738290_x_at) / RFU MYO3A (11730013_a_at) / Fold change /veh MYO3A (11730013_a_at) / RFU EBF3 (11725865_a_at) / Fold change /veh EBF3 (11725865_a_at) / RFU CAMK2N1 (11719241_x_at) / Fold change /veh CAMK2N1 (11719241_x_at) / RFU C5orf56 (11738088_a_at) / Fold change /veh C5orf56 (11738088_a_at) / RFU OLFML3 (11715873_a_at) / Fold change /veh OLFML3 (11715873_a_at) / RFU LOC100653217 /// NTM (11731650_a_at) / Fold change /veh LOC100653217 /// NTM (11731650_a_at) / RFU MAPK11 (11762145_a_at) / Fold change /veh MAPK11 (11762145_a_at) / RFU FIZ1 (11724087_x_at) / Fold change /veh FIZ1 (11724087_x_at) / RFU OASL (11726364_x_at) / Fold change /veh OASL (11726364_x_at) / RFU SOX15 (11748057_x_at) / Fold change /veh SOX15 (11748057_x_at) / RFU CD79A (11719716_a_at) / Fold change /veh CD79A (11719716_a_at) / RFU HIST1H1D (11736915_at) / Fold change /veh HIST1H1D (11736915_at) / RFU CASKIN2 (11723855_a_at) / Fold change /veh CASKIN2 (11723855_a_at) / RFU LOC730098 (11760151_x_at) / Fold change /veh LOC730098 (11760151_x_at) / RFU OR4N2 (11742367_at) / Fold change /veh OR4N2 (11742367_at) / RFU PRRT2 (11749266_a_at) / Fold change /veh PRRT2 (11749266_a_at) / RFU SNX32 (11753110_a_at) / Fold change /veh SNX32 (11753110_a_at) / RFU CDHR5 (11726645_a_at) / Fold change /veh CDHR5 (11726645_a_at) / RFU RCAN1 (11760418_a_at) / Fold change /veh RCAN1 (11760418_a_at) / RFU FAM167A (11723789_a_at) / Fold change /veh FAM167A (11723789_a_at) / RFU FAM26E (11764081_at) / Fold change /veh FAM26E (11764081_at) / RFU ISYNA1 (11749810_s_at) / Fold change /veh ISYNA1 (11749810_s_at) / RFU ACY1 (11761880_at) / Fold change /veh ACY1 (11761880_at) / RFU 11764098_at / Fold change /veh 11764098_at / RFU SAMD14 (11745864_x_at) / Fold change /veh SAMD14 (11745864_x_at) / RFU NPB (11741838_a_at) / Fold change /veh NPB (11741838_a_at) / RFU TMPRSS6 (11731388_a_at) / Fold change /veh TMPRSS6 (11731388_a_at) / RFU KRTAP10-2 (11738614_at) / Fold change /veh KRTAP10-2 (11738614_at) / RFU ARHGAP8 /// PRR5-ARHGAP8 (11727945_x_at) / Fold change /veh ARHGAP8 /// PRR5-ARHGAP8 (11727945_x_at) / RFU KRTAP5-7 /// NADSYN1 (11734609_at) / Fold change /veh KRTAP5-7 /// NADSYN1 (11734609_at) / RFU RASL12 (11751679_a_at) / Fold change /veh RASL12 (11751679_a_at) / RFU CDKN2B (11736163_a_at) / Fold change /veh CDKN2B (11736163_a_at) / RFU PRF1 (11729649_at) / Fold change /veh PRF1 (11729649_at) / RFU, ZNF638 /// ZNF638-IT1 / Fold change vs veh, ZNF638 /// ZNF638-IT1 / RFU, PANK3 / Fold change vs veh, PANK3 / RFU, SH3YL1 / Fold change vs veh, SH3YL1 / RFU, ZEB2 / Fold change vs veh, ZEB2 / RFU, NRIP1 / Fold change vs veh, NRIP1 / RFU, PTTG1IP / Fold change vs veh, PTTG1IP / RFU, CAPN2 / Fold change vs veh, CAPN2 / RFU, MED14 / Fold change vs veh, MED14 / RFU, SNORA58 / Fold change vs veh, SNORA58 / RFU, C1orf63 / Fold change vs veh, C1orf63 / RFU, LRRFIP1 / Fold change vs veh, LRRFIP1 / RFU, NDUFAF7 / Fold change vs veh, NDUFAF7 / RFU, SLC12A2 / Fold change vs veh, SLC12A2 / RFU, IBTK / Fold change vs veh, IBTK / RFU, ESF1 / Fold change vs veh, ESF1 / Fold change vs veh, TMEM50B / RFU, TAOK1 / Fold change vs veh, TAOK1 / RFU, ACBD3 / Fold change vs veh, ACBD3 / RFU, TMA16 / Fold change vs veh, TMA16 / RFU, RWDD3 / Fold change vs veh, RWDD3 / RFU, BCAT1 / Fold change vs veh, BCAT1 / RFU, EDEM3 / Fold change vs veh, EDEM3 / RFU, TMEM33 / Fold change vs veh, TMEM33 / RFU, WDR75 / Fold change vs veh, WDR75 / RFU, AHCTF1 / Fold change vs veh, AHCTF1 / RFU, TFRC / Fold change vs veh, TFRC / RFU, ZDHHC17 / Fold change vs veh, ZDHHC17 / RFU, NOM1 / Fold change vs veh, NOM1 / RFU, ARL8B / Fold change vs veh, ARL8B / RFU, ZBTB11 / Fold change vs veh, ZBTB11 / RFU, TAMM41 / Fold change vs veh, TAMM41 / RFU, KIAA1704 /// LOC100996395 / Fold change vs veh, KIAA1704 /// LOC100996395 / RFU, ING1 / Fold change vs veh, ING1 / RFU, TRMT61B / Fold change vs veh, TRMT61B / RFU, FUBP3 / Fold change vs veh, FUBP3 / RFU, TP53 / Fold change vs veh, TP53 / RFU, TNKS2 / Fold change vs veh, TNKS2 / RFU, ZFP14 / Fold change vs veh, ZFP14 / RFU, ACTR2 / Fold change vs veh, ACTR2 / RFU, PPP3R1 / Fold change vs veh, PPP3R1 / RFU, PIK3R1 / Fold change vs veh, PIK3R1 / RFU, HNRNPA1 / Fold change vs veh, HNRNPA1 / RFU, RNF170 / Fold change vs veh, RNF170 / RFU, ZNF28 / Fold change vs veh, ZNF28 / RFU, RNGTT / Fold change vs veh, RNGTT / RFU, OGT / Fold change vs veh, OGT / RFU, BRD1 / Fold change vs veh, BRD1 / RFU, MARS / Fold change vs veh, MARS / RFU, ZNF655 / Fold change vs veh, ZNF655 / RFU, FAHD1 / Fold change vs veh, FAHD1 / RFU, BDP1 / Fold change vs veh, BDP1 / RFU, LRRCC1 / Fold change vs veh, LRRCC1 / RFU, ARID1A / Fold change vs veh, ARID1A / RFU, ZNF146 / Fold change vs veh, ZNF146 / RFU, ZNF330 / Fold change vs veh, ZNF330 / RFU, GPN3 / Fold change vs veh, GPN3 / RFU, C9orf123 / Fold change vs veh, C9orf123 / RFU, N4BP2L2 / Fold change vs veh, N4BP2L2 / RFU, ARFIP1 / Fold change vs veh, ARFIP1 / RFU, FAM179B / Fold change vs veh, FAM179B / RFU, BCL10 / Fold change vs veh, BCL10 / RFU, UHRF1BP1L / Fold change vs veh, UHRF1BP1L / RFU, BET1 / Fold change vs veh, BET1 / RFU, CNOT2 / Fold change vs veh, CNOT2 / RFU, ZNF268 / Fold change vs veh, ZNF268 / Fold change vs veh, ZNF507 / RFU, DGCR2 / Fold change vs veh, DGCR2 / RFU, WDSUB1 / Fold change vs veh, WDSUB1 / Fold change vs veh, HSP90B1 /// MIR3652 / RFU, ADSS / Fold change vs veh, ADSS / RFU, GK / Fold change vs veh, GK / RFU, ZNF148 / Fold change vs veh, ZNF148 / RFU, TAF9 / Fold change vs veh, TAF9 / RFU, SLC1A5 / Fold change vs veh, SLC1A5 / RFU, SLMO2 / Fold change vs veh, SLMO2 / RFU, ABCC4 / Fold change vs veh, ABCC4 / RFU, LOC101060439 /// RAP1B / Fold change vs veh, LOC101060439 /// RAP1B / RFU, RFX7 / Fold change vs veh, RFX7 / RFU, GTPBP10 / Fold change vs veh, GTPBP10 / RFU, CNEP1R1 / Fold change vs veh, CNEP1R1 / RFU, BIVM-ERCC5 /// ERCC5 / Fold change vs veh, BIVM-ERCC5 /// ERCC5 / RFU, ILF3 / Fold change vs veh, ILF3 / RFU 11762660_at / Fold change /veh 11762660_at / RFU VCAN (11757783_s_at) / Fold change /veh VCAN (11757783_s_at) / RFU DDX43 (11728927_at) / Fold change /veh DDX43 (11728927_at) / RFU KRT8 (11758188_x_at) / Fold change /veh KRT8 (11758188_x_at) / RFU NKD1 (11759106_at) / Fold change /veh NKD1 (11759106_at) / RFU SRD5A1 (11742802_a_at) / Fold change /veh SRD5A1 (11742802_a_at) / RFU TPSAB1 /// TPSB2 (11721975_s_at) / Fold change /veh TPSAB1 /// TPSB2 (11721975_s_at) / RFU GSTM3 (11746129_a_at) / Fold change /veh GSTM3 (11746129_a_at) / RFU IL23R (11737362_x_at) / Fold change /veh IL23R (11737362_x_at) / RFU TMEM51 (11727254_a_at) / Fold change /veh TMEM51 (11727254_a_at) / RFU PIWIL2 (11732686_x_at) / Fold change /veh PIWIL2 (11732686_x_at) / RFU ORM1 (11744905_x_at) / Fold change /veh ORM1 (11744905_x_at) / RFU CCDC152 (11743942_at) / Fold change /veh CCDC152 (11743942_at) / RFU ECM1 (11717891_a_at) / Fold change /veh ECM1 (11717891_a_at) / RFU IL23R (11748794_a_at) / Fold change /veh IL23R (11748794_a_at) / RFU TNFAIP8L3 (11732012_x_at) / Fold change /veh TNFAIP8L3 (11732012_x_at) / RFU MBOAT4 (11741988_at) / Fold change /veh MBOAT4 (11741988_at) / RFU 11764193_at / Fold change /veh 11764193_at / RFU TMEM53 (11763286_at) / Fold change /veh TMEM53 (11763286_at) / RFU MAGEB2 (11727129_at) / Fold change /veh MAGEB2 (11727129_at) / RFU TMEM200A (11744735_a_at) / Fold change /veh TMEM200A (11744735_a_at) / RFU CCDC152 (11751479_a_at) / Fold change /veh CCDC152 (11751479_a_at) / RFU FAM211A (11726209_a_at) / Fold change /veh FAM211A (11726209_a_at) / RFU RGS16 (11746705_a_at) / Fold change /veh RGS16 (11746705_a_at) / RFU VCAN (11755009_s_at) / Fold change /veh VCAN (11755009_s_at) / RFU RHOB (11743442_s_at) / Fold change /veh RHOB (11743442_s_at) / RFU RGS16 (11720943_a_at) / Fold change /veh RGS16 (11720943_a_at) / RFU RGS16 (11720944_at) / Fold change /veh RGS16 (11720944_at) / RFU, VPS4B / Fold change vs veh, VPS4B / RFU, CREB1 / Fold change vs veh, CREB1 / RFU, DNAJC13 / Fold change vs veh, DNAJC13 / RFU, GNAQ / Fold change vs veh, GNAQ / RFU, CDK5R1 / Fold change vs veh, CDK5R1 / RFU, ZRANB3 / Fold change vs veh, ZRANB3 / RFU, CUL4A / Fold change vs veh, CUL4A / RFU, CCNY / Fold change vs veh, CCNY / RFU, UFL1 / Fold change vs veh, UFL1 / RFU, COG3 / Fold change vs veh, COG3 / RFU, DIAPH2 / Fold change vs veh, DIAPH2 / RFU, SKA2 / Fold change vs veh, SKA2 / RFU, AFF3 / Fold change vs veh, AFF3 / RFU, LMF1 / Fold change vs veh, LMF1 / RFU, IPO11 / Fold change vs veh, IPO11 / RFU, DFFB / Fold change vs veh, DFFB / RFU, FOXP1 / Fold change vs veh, FOXP1 / RFU, CARD8 / Fold change vs veh, CARD8 / RFU, STRN3 / Fold change vs veh, STRN3 / RFU, ADK / Fold change vs veh, ADK / RFU, RASSF2 / Fold change vs veh, RASSF2 / RFU, WIPF1 / Fold change vs veh, WIPF1 / RFU, LARP1B / Fold change vs veh, LARP1B / RFU, RASA1 / Fold change vs veh, RASA1 / RFU, RB1 / Fold change vs veh, RB1 / RFU, PPFIA1 / Fold change vs veh, PPFIA1 / RFU, MAT2A / Fold change vs veh, MAT2A / RFU, CCT5 / Fold change vs veh, CCT5 / RFU, WDR92 / Fold change vs veh, WDR92 / RFU, CUX1 / Fold change vs veh, CUX1 / RFU, TTC7A / Fold change vs veh, TTC7A / RFU, TMEM135 / Fold change vs veh, TMEM135 / RFU, DEPTOR / Fold change vs veh, DEPTOR / RFU, CPM / Fold change vs veh, CPM / RFU, DNAJB6 / Fold change vs veh, DNAJB6 / RFU, CACNA2D3 / Fold change vs veh, CACNA2D3 / RFU, DTX4 / Fold change vs veh, DTX4 / RFU, TFCP2 / Fold change vs veh, TFCP2 / RFU, GMCL1 /// GMCL1P1 / Fold change vs veh, GMCL1 /// GMCL1P1 / RFU, AEBP2 / Fold change vs veh, AEBP2 / RFU, SNHG1 /// SNORD22 /// SNORD25 /// SNORD26 /// SNORD27 /// SNORD28 /// SNORD29 /// SNORD31 / Fold change vs veh, SNHG1 /// SNORD22 /// SNORD25 /// SNORD26 /// SNORD27 /// SNORD28 /// SNORD29 /// SNORD31 / Fold change (Aza/veh), C12orf56 (ProbeSet 11735607_a_at) / Fold change (ACY-1035/veh), C12orf56 (ProbeSet 11735607_a_at) / Fold change (Aza/veh), FGFR1OP (ProbeSet 11751329_s_at) / Fold change (ACY-1035/veh), FGFR1OP (ProbeSet 11751329_s_at) / Fold change (Aza/veh), VPS36 (ProbeSet 11739960_a_at) / Fold change (ACY-1035/veh), VPS36 (ProbeSet 11739960_a_at) / RFU SYPL1 (11715823_x_at) / Fold change /veh SYPL1 (11715823_x_at) / RFU IGFBP7 (11715501_s_at) / Fold change /veh IGFBP7 (11715501_s_at) / RFU REEP3 (11722064_at) / Fold change /veh REEP3 (11722064_at) / RFU IGLL1 (11728026_x_at) / Fold change /veh IGLL1 (11728026_x_at): dose or concentration left out as unconfirmed
Details: ProbeSet 11725217_a_at; LIST B

Nc1ccc(-c2cccs2)cc1NC(=O)c1ccc2c(c1)cc(C1CC1)n2CCN1CCOCC1 [ACY-1035]
RFU, WDSUB1: 59.59 RFU
